Here are results for 24 compounds from patent publication US20250340516A1, “Isoquinolinones as Modulators of POLRMT” (Pretzel Therapeutics, Inc., priority 2024, published 2025).

Molecules are shown by their SMILES. Where only a bound is given, the exact number is not on record here.

The target in the assay is POLRMT (Homo sapiens (Human), UniProt O00411). Nature of the assay: homogeneous TR-FRET assay of POLRMT inhibition (mitochondrial transcription, 407 bp RNA product). To be noted: 7.5 nM POLRMT, 15 nM TFB2M, 30 nM TFAM, 0.5 nM DNA template, 500 μM NTPs, 37° C., 60 minutes, * = aggregation of data sets, read-out: IC50 values for isoquinolinone compounds. It is filed as biochemical. How it is done: The inhibitory activity of the compounds of the present invention against POLRMT were determined by assays based on Bergbrede, T., et al., “An adaptable high-throughput technology enabling the identification of specific transcription modulators,” SLAC Discov., 22, 378-386 (2017).
Chain of POLRMT (O00411 42-1230): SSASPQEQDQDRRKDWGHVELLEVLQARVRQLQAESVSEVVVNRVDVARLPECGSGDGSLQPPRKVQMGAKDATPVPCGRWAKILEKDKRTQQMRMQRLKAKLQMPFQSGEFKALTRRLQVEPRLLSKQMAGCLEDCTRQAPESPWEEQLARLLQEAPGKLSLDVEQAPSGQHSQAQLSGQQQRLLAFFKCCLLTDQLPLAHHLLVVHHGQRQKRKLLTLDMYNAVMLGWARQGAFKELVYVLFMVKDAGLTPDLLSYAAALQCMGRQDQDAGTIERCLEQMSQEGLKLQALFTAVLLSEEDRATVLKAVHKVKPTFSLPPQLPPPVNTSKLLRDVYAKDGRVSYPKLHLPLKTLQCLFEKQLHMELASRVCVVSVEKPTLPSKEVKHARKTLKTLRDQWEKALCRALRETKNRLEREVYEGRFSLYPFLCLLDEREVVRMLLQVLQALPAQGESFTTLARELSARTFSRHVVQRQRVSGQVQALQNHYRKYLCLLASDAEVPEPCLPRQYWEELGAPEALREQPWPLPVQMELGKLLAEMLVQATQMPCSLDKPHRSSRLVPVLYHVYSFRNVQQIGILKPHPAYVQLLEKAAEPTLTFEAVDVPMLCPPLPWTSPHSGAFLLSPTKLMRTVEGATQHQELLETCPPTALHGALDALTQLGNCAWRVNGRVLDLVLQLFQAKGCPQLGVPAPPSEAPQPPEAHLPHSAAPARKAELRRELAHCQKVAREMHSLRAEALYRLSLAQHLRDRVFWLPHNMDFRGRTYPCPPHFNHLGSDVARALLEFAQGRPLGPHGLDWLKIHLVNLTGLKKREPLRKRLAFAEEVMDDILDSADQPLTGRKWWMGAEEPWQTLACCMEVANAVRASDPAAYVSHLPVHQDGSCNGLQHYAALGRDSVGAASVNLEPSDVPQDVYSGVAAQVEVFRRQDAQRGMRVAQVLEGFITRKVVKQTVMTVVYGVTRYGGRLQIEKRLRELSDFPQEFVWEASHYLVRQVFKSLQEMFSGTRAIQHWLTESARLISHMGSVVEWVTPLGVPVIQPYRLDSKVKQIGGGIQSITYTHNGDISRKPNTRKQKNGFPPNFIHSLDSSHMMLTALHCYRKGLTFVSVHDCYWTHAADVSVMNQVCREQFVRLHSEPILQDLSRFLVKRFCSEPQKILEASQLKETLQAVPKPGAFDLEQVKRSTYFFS
The ability of some compounds of the present invention to inhibit POLRMT were determined in a homogeneous TR-FRET Assay using high-throughput screening in a 384-well plate format. This method is used to monitor the activity of mitochondrial transcription through measurement of its product, a 407 bp long RNA transcript. Detection of the product is facilitated by hybridization of two DNA-oligonucleotide probes to specific and adjacent sequences within the RNA product sequence. Upon annealing of the probes, two fluorophores are coupled directly to an acceptor nucleotide probe (ATTO647, 5′), or introduced via a coupled streptavidin with a biotinylated donor nucleotide probe (Europium cryptate) that is brought into sufficient proximity to serve as a fluorescence-donor-acceptor pair. Thus, a FRET signal at 665 nm is generated upon excitation at 340 nm.
Proteins used as transcription factors (POLRMT: NP_005026.3, TFAM: NP_003192.1, TFB2M: NP_071761.1) are diluted from their stocks to working concentrations of 1 μM, 20 μM and 4 μM respectively, in a dilution buffer containing 20 mM Tris-HCl (pH 8.0), 200 mM NaCl, 10% (v/v) glycerol, 1 mM Dithiothreitol (DTT), 0.5 mM EDTA.
DNA template is a pUC18 plasmid with the mitochondrial light strand promotor sequence (1-477) cloned between HindIII and BamHI sites. The DNA template is restriction linearized proximal to the promotor 3′-end (pUC-LSP).
The reaction mixture (10 uL) containing 7.5 nM POLRMT, 15 nM of TFB2M, 30 nM of TFAM, 0.5 nM of DNA template and 500 μM nucleotide triphosphate mix (NTPs) in a reaction buffer (containing 10 mM Tris-HCl (pH 7.5), 10 mM MgCl2, 40 mM NaCl, 10 mM DTT, 0.005% (w/v) Tween-20, 160 units/ml Rnase inhibitor and 0.1 mg/mL BSA) are dispensed to compounds in microplates, using a Thermo Multidrop® dispenser, and incubated at 37° C. in a VWR INCU-Line incubator for 60 minutes after mixing. No nucleotide triphosphate mix is added to negative control samples. Microplates with compounds to be tested in the assay are prepared from 10 mM compound stocks in 100% DMSO, equal amounts of DMSO without any compound are added to positive control and negative control samples.
During the incubation, a mix of the detection reagents is prepared in a buffer such that the enzymatic reaction is terminated due to chelating of Mg-ions and increased ionic strength, containing 50 mM Tris-HCl (pH 7.5), 700 mM NaCl, 20 mM EDTA, and 0.01% (w/v) Tween-20. Europium-streptavidin is pre-incubated with a 200-fold molar excess of a random sequence oligonucleotide to block unspecific binding of oligo, for two hours at ambient temperature in the dark. Afterwards, the blocked Europium-streptavidin is kept on ice until use.
At the end of the enzymatic reaction time, 5 μL detection oligo mix in the detection buffer is added, and assay plates are mixed and kept at ambient temperature for one hour, protected from light. The concentration of the Acceptor nucleotide oligo (e.g., ATTO647N-5′-[…]-3′ (SEQ ID NO: 1)) and Donor nucleotide oligo (e.g., bio-5′-AACACATCTCT(-bio)GCCAAACCCCA-bio-3′ (SEQ ID NO: 2)) in each assay well is 1 nM, and 3 nM, respectively.
After incubation with oligo mix, 5 μL of pre-blocked Europium-streptavidin reagent is dispensed to each assay well, assay plates are again mixed and kept at ambient temperature for one hour, protected from light.
The generated signal is measured with BMG Pherastar microtiter plate reader with a TRF light unit, using excitation at 340 nm, an integration time of 200 μs, and a delay time of 100 μs, before detection at 620 nm and 665 nm. The ratio of donor- and acceptor-fluorescence is used as a measure of the generated transcript product (i.e. enzymatic activity).
In general terms: In TR-FRET formats the signal depends on donor and acceptor labels being close together.
As a reminder, the IC50 is the concentration that inhibits the measured activity by half. As to `CCN1CCN(C(=O)[C@@H](C)Oc2ccc3c(-c4ccccc4C)c[nH]c(=O)c3c2)CC1` [Example 18, (R)-7-((1-(4-ethylpiperazin-1-yl)-1-oxopropan-2-yl)oxy)-4-(o-tolyl)isoquinolin-1(2H)-one], the IC50 stood at 200 nM.
For `CC(=O)NCCN(C)C(=O)[C@@H](C)Oc1ccc2c(-c3ccccc3C)c[nH]c(=O)c2c1` [Example 19, (R)-N-(2-acetamidoethyl)-N-methyl-2-((1-oxo-4-(o-tolyl)-1,2-dihydroisoquinolin-7-yl)oxy)propanamide], the IC50 is 2000 nM.
In the case of `Cc1cccc(C)c1-c1c[nH]c(=O)c2cc(O[C@H](C)C(=O)N3CCC(C)(C(=O)O)CC3)ccc12` [Example 20, (R)-1-(2-((4-(2,6-dimethylphenyl)-1-oxo-1,2-dihydroisoquinolin-7-yl)oxy)propanoyl)-4-methylpiperidine-4-carboxylic acid], the IC50 came to 100 nM.
For `Cc1ccccc1-c1c[nH]c(=O)c2cc(O[C@H](C)C(=O)N[C@H](C)C(N)=O)ccc12` [Example 21, (R)-N-((R)-1-amino-1-oxopropan-2-yl)-2-((1-oxo-4-(o-tolyl)-1,2-dihydroisoquinolin-7-yl)oxy)propanamide], the IC50 amounted to 200 nM.
Next, `CC(=O)N(C)CCN(C)C(=O)[C@@H](C)Oc1ccc2c(-c3ccccc3C)c[nH]c(=O)c2c1` [Example 22, (R)-N-methyl-N-(2-(N-methylacetamido)ethyl)-2-((1-oxo-4-(o-tolyl)-1,2-dihydroisoquinolin-7-yl)oxy)propanamide]: 2000 nM; `COCCN1CCN(C(=O)[C@@H](C)Oc2ccc3c(-c4ccccc4C)c[nH]c(=O)c3c2)CC1=O` [Example 23, (R)-7-((1-(4-(2-methoxyethyl)-3-oxopiperazin-1-yl)-1-oxopropan-2-yl)oxy)-4-(o-tolyl)isoquinolin-1(2H)-one]: 300 nM.
With `Cc1ccccc1-c1c[nH]c(=O)c2cc(O[C@@H](C)C(=O)N[C@H](C)C(N)=O)ccc12` [Example 24, (S)-N-((R)-1-amino-1-oxopropan-2-yl)-2-((1-oxo-4-(o-tolyl)-1,2-dihydroisoquinolin-7-yl)oxy)propanamide], the concentration for half-maximal inhibition (IC50) came to 37000 nM.
On to `COC(=O)CN(C)C(=O)[C@H](C)Oc1ccc2c(-c3ccccc3C)c[nH]c(=O)c2c1` [Example 25, methyl (S)-N-methyl-N-(2-((1-oxo-4-(o-tolyl)-1,2-dihydroisoquinolin-7-yl)oxy)propanoyl)glycinate], for which the 50% inhibitory concentration (IC50) is over 100000 nM.
On to `Cc1ccccc1-c1c[nH]c(=O)c2cc(O[C@@H](C)C(=O)N(C)CC(=O)O)ccc12` [Example 26, (S)-N-methyl-N-(2-((1-oxo-4-(o-tolyl)-1,2-dihydroisoquinolin-7-yl)oxy)propanoyl)glycine], for which the 50% inhibitory concentration (IC50) worked out at 43000 nM.
Consider `COCCN1C2CCC1CN(C(=O)[C@@H](C)Oc1ccc3c(-c4ccccc4C)c[nH]c(=O)c3c1)C2` [Example 27, 7-(((2R)-1-(8-(2-methoxyethyl)-3,8-diazabicyclo[3.2.1]octan-3-yl)-1-oxopropan-2-yl)oxy)-4-(o-tolyl)isoquinolin-1(2H)-one], for which the half-maximal inhibitory concentration (IC50) was 100 nM.
As for `CC(=O)N[C@H]1CCCN(C(=O)[C@@H](C)Oc2ccc3c(-c4ccccc4C)c[nH]c(=O)c3c2)C1` [Example 28, N-((S)-1-((R)-2-((1-oxo-4-(o-tolyl)-1,2-dihydroisoquinolin-7-yl)oxy)propanoyl)piperidin-3-yl)acetamide], the IC50 was determined as 100 nM.
Consider `CC(=O)N[C@@H]1CCCN(C(=O)[C@@H](C)Oc2ccc3c(-c4ccccc4C)c[nH]c(=O)c3c2)C1` [Example 29, N-((R)-1-((R)-2-((1-oxo-4-(o-tolyl)-1,2-dihydroisoquinolin-7-yl)oxy)propanoyl)piperidin-3-yl)acetamide], for which the half-maximal inhibitory concentration (IC50) came out at 100 nM.
Take `Cc1ccccc1-c1c[nH]c(=O)c2cc(O[C@H](C)C(=O)N3CCC(NC(N)=O)CC3)ccc12` [Example 30, (R)-1-(1-(2-((1-oxo-4-(o-tolyl)-1,2-dihydroisoquinolin-7-yl)oxy)propanoyl)piperidin-4-yl)urea]: the concentration for half-maximal inhibition (IC50) turned out to be 70 nM.
In the case of `Cc1ccccc1-c1c[nH]c(=O)c2cc(O[C@H](C)C(=O)N3CCC(N(C)C)CC3)ccc12` [Example 31, (R)-7-((1-(4-(dimethylamino)piperidin-1-yl)-1-oxopropan-2-yl)oxy)-4-(o-tolyl)isoquinolin-1(2H)-one], the IC50 came to 300 nM.
On to `Cc1ccccc1-c1c[nH]c(=O)c2cc(O[C@H](C)C(=O)N3CCC[C@H](N(C)C)C3)ccc12` [Example 32, 7-(((R)-1-((S)-3-(dimethylamino)piperidin-1-yl)-1-oxopropan-2-yl)oxy)-4-(o-tolyl)isoquinolin-1(2H)-one], for which the IC50 is 200 nM.
For the compound `Cc1ccccc1-c1c[nH]c(=O)c2cc(O[C@H](C)C(=O)N3CCC[C@@H](N(C)C)C3)ccc12` [Example 33, 7-(((R)-1-((R)-3-(dimethylamino)piperidin-1-yl)-1-oxopropan-2-yl)oxy)-4-(o-tolyl)isoquinolin-1(2H)-one], the concentration for half-maximal inhibition (IC50) worked out at 300 nM.
In the case of `Cc1ccccc1-c1c[nH]c(=O)c2cc(O[C@H](C)C(=O)N3CCCC(C4(C(=O)O)CC4)C3)ccc12` (stereo partly drawn) [Example 34, 1-(1-((R)-2-((1-oxo-4-(o-tolyl)-1,2-dihydroisoquinolin-7-yl)oxy)propanoyl)piperidin-3-yl)cyclopropane-1-carboxylic acid], the IC50 worked out at 30 nM.
Regarding `Cc1ccccc1-c1c[nH]c(=O)c2cc(O[C@H](C)C(=O)N3CCC[C@H](CC(N)=O)C3)ccc12` [Example 38, 2-((R)-1-((R)-2-((1-oxo-4-(o-tolyl)-1,2-dihydroisoquinolin-7-yl)oxy)propanoyl)piperidin-3-yl)acetamide], the IC50 was found to be 9 nM.
For `Cc1ccccc1-c1c[nH]c(=O)c2cc(O[C@H](C)C(=O)N3CCC[C@@H](CC(N)=O)C3)ccc12` [Example 39, 2-((S)-1-((R)-2-((1-oxo-4-(o-tolyl)-1,2-dihydroisoquinolin-7-yl)oxy)propanoyl)piperidin-3-yl)acetamide], the half-maximal inhibitory concentration (IC50) was 40 nM.
As for `N#CCOc1ccc2c(-c3ccccc3CCO)c[nH]c(=O)c2c1` [Example 42, 2-((4-(2-(2-hydroxyethyl)phenyl)-1-oxo-1,2-dihydroisoquinolin-7-yl)oxy)acetonitrile], the IC50 was found to be 300 nM.
Then `COCc1ccccc1-c1c[nH]c(=O)c2cc(OCC#N)ccc12` [Example 47, 2-((4-(2-(methoxymethyl)phenyl)-1-oxo-1,2-dihydroisoquinolin-7-yl)oxy)acetonitrile], with 18000 nM; and `Cc1cccc(C#N)c1-c1c[nH]c(=O)c2cc(OCC#N)ccc12` [Example 48, 2-(7-(cyanomethoxy)-1-oxo-1,2-dihydroisoquinolin-4-yl)-3-methylbenzonitrile], with 500 nM.
Take `N#CCOc1ccc2c(-c3ccccc3OC(F)(F)F)c[nH]c(=O)c2c1` [Example 49, 2-((1-oxo-4-(2-(trifluoromethoxy)phenyl)-1,2-dihydroisoquinolin-7-yl)oxy)acetonitrile]: the IC50 was over 100000 nM.
As for `CC(=O)N1CCN(C[C@@H](C)Oc2ccc3c(-c4ccccc4C)c[nH]c(=O)c3c2)CC1` [Example 54, (R)-7-((1-(4-acetylpiperazin-1-yl)propan-2-yl)oxy)-4-(o-tolyl)isoquinolin-1(2H)-one], the concentration for half-maximal inhibition (IC50) was determined as 4000 nM.
